Test [1] concerns Annelid ceramide-glycanase. Kind of test: Substrate specificity and pH optimum of annelid ceramide-glycanase from leeches and earthworms (general description). Type of test: biochemical. The conditions noted are these: enzyme obtained from leeches and earthworms.
Test [2] has as its system leech ceramide-glycanase. Kind of test: Hydrolysis of glycolipids with leech enzyme (TLC). Type of test: biochemical, leech (Hirudo medicinalis, Macrobdella decora). Particulars: 30 nmol substrate, pH 4.5, sodium taurodeoxycholate 200 μg, 37° C. The protocol:
Assays were performed in 10×75 mm glass tubes. […] Glycolipid substrates included LacCer, GbOse3 Cer, GbOse4 Cer, GbOse5 Cer, nLcOse4 Cer, GM3, GM2, GM1, GD1a and GT1. After the mixture was incubated at 37° C. for a preset time, the reaction was terminated by adding 5 volumes of chloroform:methanol (2:1). The mixture was vortexed and briefly centrifuged to separate the organic phase (lower) from the aqueous phase (upper). Under this condition the enzyme protein became insoluble and stayed at the interface. […] For detection of the released oligosaccharide, the aqueous phase was analyzed by thin-layer chromatography using n-butanol:acetic acid:H2 O (2:1:1) as the developing solvent. […] The chromatograms are seen in FIGS. 2 and 3.

In test [3] the test system is earthworm ceramide-glycanase. Put plainly: Hydrolysis of glycolipids with earthworm enzyme (TLC). Type of test: biochemical, Lumbricus terrestris. The conditions noted are these: 37° C.; for release of ceramides from the glycolipid by earthworm ceramide-glycanase: one unit enzyme, 17 h, TLC; for hydrolysis of the glycolipid by earthworm ceramide-glycanase: 20 nmol substrate, pH 4.5, sodium taurodeoxycholate 400 μg, 16 hours. The protocol:
The assay for ceramide-glycanase was carried out essentially according to the method described above in Example 3. […] Glycolipid substrates included LacCer, GbOse3 Cer, GT1, […] and GlcCer. […] The mixture was vortexed and centrifuged to separate the organic phase (lower) from the aqueous phase (upper). […] For the detection of the released oligosaccharide, the aqueous phase was analyzed by TLC using n-butanol:acetic acid:H2 O (2:1:1) as the developing solvent. […] The chromatograms are seen in FIGS. 5 and 6.

With 3-sulfo-lactosyl ceramide, the “hydrolysis of the glycosphingolipid by annelid ceramide-glycanase” value (from here on “hydrolysis of the glycosphingolipid”) in test [1] is reported as “hydrolyzes”.

GD1a: the “release of intact oligosaccharide from the glycolipid by leech ceramide-glycanase” value (from here on “release of intact oligosaccharide”) in test [2] is on record as “liberated an intact sialic acid containing oligosaccharide”. The “release of ceramides from the glycolipid by earthworm ceramide-glycanase” value (shortened to “release of ceramides from the glycolipid”) in test [3] was “able to release ceramides”. Also, the “hydrolysis of the glycosphingolipid” value in test [1] is given as “hydrolyzes”.

Turning to Galα1→4GalCer [DiGalCer], the “hydrolysis of the glycolipid by earthworm ceramide-glycanase” value (“hydrolysis of the glycolipid” below) in test [3] was “not hydrolyzed”.

In the case of galactosylceramide [GalCer], the “hydrolysis of the glycolipid” value in test [3] is reported as “refractory”. In test [1], the “hydrolysis of the glycosphingolipid” value was “will not generally hydrolyze”.

In the case of globopentaoyl-ceramicde [GbOse5 Cer], in test [2], the “release of intact oligosaccharide” value is “able to liberate the intact oligosaccharide”. Also, the “release of ceramides from the glycolipid” value in test [3] is given as “able to release ceramides”. The “hydrolysis of the glycosphingolipid” value in test [1] was “hydrolyzes”.

On to globotetraosyl-ceramide [GbOse4 Cer], for which the “release of intact oligosaccharide” value in test [2] was “able to liberate the intact oligosaccharide”. In test [3], the “release of ceramides from the glycolipid” value is on record as “able to release ceramides”. The “hydrolysis of the glycosphingolipid” value in test [1] is recorded as “hydrolyzes”.

As to globotriaosyl-ceramide [GbOse3 Cer], the “release of intact oligosaccharide” value in test [2] was “able to liberate the intact oligosaccharide”. Moreover, the “release of ceramides from the glycolipid” value in test [3] is “able to release ceramides”. The “hydrolysis of the glycosphingolipid” value in test [1] was “hydrolyzes”.

In the case of glucosylceramide [GlcCer], in test [3], the “hydrolysis of the glycolipid” value is recorded as “refractory”. In addition, the “hydrolysis of the glycosphingolipid” value in test [1] is on record as “will not generally hydrolyze”.

Turning to “lacto-N-neotetraoyl-ceramide [nLcOse4 Cer]”, the “release of intact oligosaccharide” value in test [2] is listed as “able to liberate the intact oligosaccharide”. The “hydrolysis of the glycosphingolipid” value in test [1] is “hydrolyzes”.

Regarding lactosyl-ceramide [LacCer], in test [2], the “release of intact oligosaccharide” value is given as “able to liberate the intact oligosaccharide”. Also, in test [3], the “hydrolysis of the glycolipid” value is “hydrolyzed” and the “release of ceramides from the glycolipid” value is listed as “able to release ceramides”. Moreover, the “hydrolysis of the glycosphingolipid” value in test [1] is recorded as “hydrolyzes”.
